For the assay, the target named is T1, Human M4 (Homo sapiens, UniProt P08173).
T1 construct: Human or rat M4 cDNA, along with the chimeric G protein Gqi5, were transfected into Chinese hamster ovary (CHO-K1) cells; expressed in transfected cells; host or cells: CHO-K1 (Chinese hamster ovary, ATCC), stably co-expressing Gqi5
T1 sequence (P08173 1-479): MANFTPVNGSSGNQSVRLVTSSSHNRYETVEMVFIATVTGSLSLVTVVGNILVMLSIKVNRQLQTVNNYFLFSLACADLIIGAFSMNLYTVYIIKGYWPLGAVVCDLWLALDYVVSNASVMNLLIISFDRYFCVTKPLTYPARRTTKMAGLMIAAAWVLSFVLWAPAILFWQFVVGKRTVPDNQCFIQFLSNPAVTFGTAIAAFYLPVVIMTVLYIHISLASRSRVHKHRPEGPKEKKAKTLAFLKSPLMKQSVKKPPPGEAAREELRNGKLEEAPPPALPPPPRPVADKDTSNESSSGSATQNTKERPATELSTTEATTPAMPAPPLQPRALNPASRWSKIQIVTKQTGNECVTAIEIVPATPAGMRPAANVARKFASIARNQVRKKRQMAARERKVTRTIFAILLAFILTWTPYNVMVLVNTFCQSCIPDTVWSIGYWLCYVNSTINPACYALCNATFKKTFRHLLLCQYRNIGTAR
Description: mAChR M4 cell-based functional assay (calcium flux, decrease of EC80 acetylcholine response). The conditions noted are these: for remaining activity at 30 µM: read-out: Human M4 Emin; for IC50: M4/Gqi5/CHO-K1 cells, decrease of response to EC80 acetylcholine. How it is done: Human or rat M4 cDNA, along with the chimeric G protein Gqi5, were transfected into Chinese hamster ovary (CHO-K1) cells purchased from the American Type Culture Collection using Lipofectamine2000. M4/Gqi5/CHO cells were grown in Ham's F-12 medium containing 10% heat-inactivated fetal bovine serum (FBS), 20 mM HEPES, 500 μg/mL G418 sulfate, and 200 μg/mL Hygromycin B.
For high throughput measurement of agonist-evoked increases in intracellular calcium, CHO-K1 cells stably expressing muscarinic receptors were plated in growth medium lacking G418 and hygromycin at 15,000 cells/20 μL/well in Greiner 384-well black-walled, tissue culture (TC)-treated, clear-bottom plates (VWR). Cells were incubated overnight at 37° C. and 5% CO2. The next day, cells were washed using an ELX 405 (BioTek) with assay buffer; the final volume was then aspirated to 20 μL. Next, 20 μL of a 2.3 μM stock of Fluo-4/acetoxymethyl ester (Invitrogen, Carlsbad, Calif.), prepared as a 2.3 mM stock in DMSO and mixed in a 1:1 ratio with 10% (w/v) Pluronic F-127 and diluted in assay buffer, was added to the wells and the cell plates were incubated for 50 min at 37° C. and 5% CO2. Dye was removed by washing with the ELX 405 and the final volume was aspirated to 20 μL. Compound master plates were formatted in a 10 point concentration-response curve (CRC) format (1:3 dilutions) in 100% DMSO with a starting concentration of 10 or 1 mM using a BRAVO liquid handler (Agilent). Test compound CRCs were then transferred to daughter plates (240 nL) using the Echo acoustic plate reformatter (Labcyte, Sunnyvale, Calif.) and then diluted into assay buffer (40 μL) to a 2×stock using a Thermo Fisher Combi (Thermo Fisher Scientific, Waltham, Mass.).
Calcium flux was measured using the Functional Drug Screening System (FDSS) 6000 or 7000 (Hamamatsu Corporation, Tokyo, Japan) as an increase in the fluorescent static ratio. Compounds were applied to cells (20 μL, 2×) using the automated system of the FDSS at 2 seconds into the protocol and the data were collected at 1 Hz. At 143 s, 10 μL of an EC20 concentration of the muscarinic receptor agonist acetylcholine was added (5×), followed by the addition of 12 μL of an EC80 concentration of acetylcholine at the 268 s time point (5×). Agonist activity was analyzed as a concentration-dependent increase in calcium mobilization upon compound addition. Positive allosteric modulator activity was analyzed as a concentration-dependent increase in the EC20 acetylcholine response. Antagonist activity was analyzed as a concentration-dependent decrease in the EC80 acetylcholine response; for the purposes of the tables herein, an IC50 (inhibitory concentration 50) was calculated as a concentration-dependent decrease of the response elicited by an EC80 concentration of acetylcholine. Concentration-response curves were generated using a four-parameter logistical equation in XLFit curve fitting software (IDBS, Bridgewater, N.J.) for Excel (Microsoft, Redmond, Wash.) or Prism (GraphPad Software, Inc., San Diego, Calif.) or the Dotmatics software platform (Dotmatics, Bishop's Stortford, UK).
Compounds were synthesized as described above. Activity (IC50 and Emin) was determined in the mAChR M4 cell-based functional assay as described above and the data are shown in Table 2.

Experimental findings from patent publication US20230183219A1, “CONDENSED SUBSTITUTED HYDROPYRROLES AS ANTAGONISTS OF THE MUSCARINIC ACETYLCHOLINE RECEPTOR M4” (Vanderbilt University, priority 2020, published 2023) are described below.

Consider `Cn1cc2cc(-c3cc(C(F)(F)F)c(N[C@H]4C[C@@H]5CN(C[C@@H]6COCCO6)C[C@@H]5C4)nn3)ccc2n1` [Example 35, (3aR,5s,6aS)-2-(((R)-1,4-dioxan-2-yl)methyl)-N-(6-(2-methyl-2H-indazol-5-yl)-4-(trifluoromethyl)pyridazin-3-yl)octahydro-cyclopenta[c]pyrrol-5-amine], for which the IC50 is 0.147 µM. Besides, under “% ACh maximum at 30 μM”, the remaining activity at 30 µM turned out to be 6%.

With `CCc1ccccc1-c1cc(C(F)(F)F)c(N[C@H]2C[C@@H]3CN(CC4CCOCC4)C[C@@H]3C2)nn1` [Example 85, (3aR,5s,6aS)-N-(6-(2-ethylphenyl)-4-(trifluoro-methyl)pyridazin-3-yl)-2-((tetrahydro-2H-pyran-4-yl)methyl)octahydro-cyclopenta[c]pyrrol-5-amine], the IC50 was found to be 0.0428 µM. The remaining activity at 30 µM (% ACh maximum at 30 μM) was determined as 3%.

For the compound `Fc1ccc(Cl)c(-c2nnc(N[C@H]3C[C@@H]4CN(CC5CCOCC5)C[C@@H]4C3)cc2C(F)(F)F)c1` [Example 10, (3aR,5s,6aS)-N-(6-(2-chloro-5-fluorophenyl)-5-(trifluoro-methyl)pyridazin-3-yl)-2-((tetrahydro-2H-pyran-4-yl)methyl)octahydro-cyclopenta[c]pyrrol-5-amine], the IC50 stood at 0.00206 µM. Further, the remaining activity at 30 µM (% ACh maximum at 30 μM) was 3%.

As to `Cc1cc(-c2cc(C(F)(F)F)c(N[C@H]3C[C@@H]4CN(CC5CCOCC5)C[C@@H]4C3)nn2)c(C)cc1F` [Example 51, (3aR,5s,6aS)-N-(6-(4-fluoro-2,5-dimethylphenyl)-4-(trifluoromethyl)pyridazin-3-yl)-2-((tetrahydro-2H-pyran-4-yl)methyl)octahydro-cyclopenta[c]pyrrol-5-amine], the IC50 amounted to 0.242 µM. For the same compound, the remaining activity at 30 µM (% ACh maximum at 30 μM) was 3%.

For `[2H][C@@]1(Oc2nnc(-c3cc(F)ccc3C)cc2C(F)(F)F)C[C@H]2CN(Cc3ccccn3)C[C@H]2C1` [Example 134, (3aR,5s,6aS)-5-((6-(5-fluoro-2-methylphenyl)-4-(trifluoro-methyl)pyridazin-3-yl)oxy)-2-(pyridin-2-ylmethyl)octahydro-cyclopenta[c]pyrrole-5-d], the half-maximal inhibitory concentration (IC50) worked out at 2.83 µM. Also, the remaining activity at 30 µM (% ACh maximum at 30 μM) is 6%.

For the compound `[2H]C([2H])([2H])N(c1cc(C(F)(F)F)c(-c2ccc3nn(C)cc3c2C)nn1)[C@H]1C[C@@H]2CN(CC3CCOCC3)C[C@@H]2C1` [Example 7, (3aR,5s,6aS)—N-(6-(2,4-dimethyl-2H-indazol-5-yl)-5-(trifluoromethyl)pyridazin-3-yl)-N-(methyl-d3)-2-((tetrahydro-2H-pyran-4-yl)methyl)octahydrocyclopenta [c]pyrrol-5-amine], where the note is “% ACh maximum at 30 μM”, the “Human M4 Emin” value was 15%.

With `N#Cc1ccc(F)c(-c2cc(C(F)(F)F)c(N[C@H]3C[C@@H]4CN(CC5CCOCC5)C[C@@H]4C3)nn2)c1` [Example 54, 4-fluoro-3-(6-(((3aR,5s,6aS)-2-((tetrahydro-2H-pyran-4-yl)methyl)octahydro-cyclopenta[c]pyrrol-5-yl)amino)-5-(trifluoro-methyl)pyridazin-3-yl)benzonitrile], the IC50 was found to be 0.223 µM. For the same compound, the remaining activity at 30 µM (% ACh maximum at 30 μM) was found to be 4%.

As to `CN1Cc2cc(-c3cc(C(F)(F)F)c(N[C@H]4C[C@@H]5CN(CC6CCOCC6)C[C@@H]5C4)nn3)ccc2C1=O` [Example 86, 2-methyl-5-(6-(((3aR,5s,6aS)-2-((tetrahydro-2H-pyran-4-yl)methyl)octahydro-cyclopenta[c]pyrrol-5-yl)amino)-5-(trifluoro-methyl)pyridazin-3-yl)isoindolin-1-one], the IC50 is 0.2 µM. Also, under “% ACh maximum at 30 μM”, the remaining activity at 30 µM was found to be 4%.

`Cc1ccc(F)cc1-c1cc(C(F)(F)F)c(N[C@H]2C[C@@H]3CN(CC4CCOCC4)C[C@@H]3C2)nn1` [compound 11]: the IC50 came to 0.00241 µM. Further, the remaining activity at 30 µM (% ACh maximum at 30 μM) was found to be 4%.

On to `Cn1cc2cc(-c3cc(C(F)(F)F)c(N[C@H]4C[C@@H]5CN(C[C@@H]6CCOC6)C[C@@H]5C4)nn3)ccc2n1` [Example 32, (3aR,5s,6aS)-N-(6-(2-methyl-2H-indazol-5-yl)-4-(trifluoro-methyl)pyridazin-3-yl)-2-(((S)-tetrahydrofuran-3-yl)methyl)octahydro-cyclopenta[c]pyrrol-5-amine], for which the IC50 turned out to be 0.162 µM. Under “% ACh maximum at 30 μM”, the remaining activity at 30 µM was found to be 6%.

On to `Cc1ccc(F)cc1-c1cc(C(F)(F)F)c(N[C@H]2C[C@@H]3CN(CC4CCCCO4)C[C@@H]3C2)nn1` (single isomer, unassigned) [Example 118], for which the IC50 was 0.0125 µM. In addition, the remaining activity at 30 µM (% ACh maximum at 30 μM) turned out to be 3%.

As for `N#Cc1c(F)ccc(-c2cc(C(F)(F)F)c(N[C@H]3C[C@@H]4CN(CC5CCOCC5)C[C@@H]4C3)nn2)c1F` [Example 55, 2,6-difluoro-3-(6-(((3aR,5s,6aS)-2-((tetrahydro-2H-pyran-4-yl)methyl)octahydro-cyclopenta[c]pyrrol-5-yl)amino)-5-(trifluoro-methyl)pyridazin-3-yl)benzonitrile], the IC50 was 0.401 µM. The remaining activity at 30 µM (% ACh maximum at 30 μM) is 4%.

Turning to `Cn1cc2cc(-c3cc(C(F)(F)F)c(N[C@H]4C[C@@H]5CN(C[C@H]6CCOC6)C[C@@H]5C4)nn3)ccc2n1` [Example 33, (3aR,5s,6aS)-N-(6-(2-methyl-2H-indazol-5-yl)-4-(trifluoro-methyl)pyridazin-3-yl)-2-(((R)-tetrahydrofuran-3-yl)methyl)octahydro-cyclopenta[c]pyrrol-5-amine], the IC50 amounted to 0.188 µM. Further, the remaining activity at 30 µM (% ACh maximum at 30 μM) stood at 6%.

In the case of `Cc1c(-c2cc(C(F)(F)F)c(N[C@H]3C[C@@H]4CN(CC5CCOCC5)C[C@@H]4C3)nn2)ccc2nn(C)cc12` [Example 39, (3aR,5s,6aS)-N-(6-(2,4-dimethyl-2H-indazol-5-yl)-4-(trifluoromethyl)pyridazin-3-yl)-2-((tetrahydro-2H-pyran-4-yl)methyl)octahydro-cyclopenta[c]pyrrol-5-amine], the IC50 was 0.0021 µM. For the same compound, the remaining activity at 30 µM (% ACh maximum at 30 μM) was determined as 2%.

For the compound `Cn1cc2cc(-c3cc(C#N)c(N[C@H]4C[C@@H]5CN(CC6CCOCC6)C[C@@H]5C4)nn3)ccc2n1` [Example 153, 6-(2-methyl-2H-indazol-5-yl)-3-(((3aR,5s,6aS)-2-((tetrahydro-2H-pyran-4-yl)methyl)octahydro-cyclopenta[c]pyrrol-5-yl)amino)pyridazine-4-carbonitrile], the concentration for half-maximal inhibition (IC50) was found to be 0.0097 µM. Where the note is “% ACh maximum at 30 μM”, the remaining activity at 30 µM was determined as 11%.

For `Fc1ccc(-c2cc(C(F)(F)F)c(N[C@H]3C[C@@H]4CN(CC5CCOCC5)C[C@@H]4C3)nn2)c(F)c1` [Example 82, (3aR,5s,6aS)-N-(6-(2,4-difluorophenyl)-4-(trifluoro-methyl)pyridazin-3-yl)-2-((tetrahydro-2H-pyran-4-yl)methyl)octahydro-cyclopenta[c]pyrrol-5-amine], the IC50 amounted to 0.286 µM. Also, under “% ACh maximum at 30 μM”, the remaining activity at 30 µM came out at 3%.
